Results published in patent publication US10023570B2 (Array BioPharma, Inc., priority 2015, dated 2018).
Read-outs that look alike come from different tables or passages of the source.

How the values were obtained:
[1] = molecular target: Kif5b-RET fusion protein in HEK-293 cells (Homo sapiens, UniProt P07949); assay: cell-based
Method: The cellular potency of a compound inhibiting RET kinase was determined in HEK-293 cells expressing a Kif5b-RET fusion protein. Briefly, HEK-293 cells expressing a Kif5b-RET fusion protein were plated at 50K cells/well in 96 well poly-D-Lysine coated plates the day prior to the assay. The cells were incubated for 1 hour with test compound in DMEM (Dulbecco's Modified Eagle Medium) at a final DMSO concentration of 0.5%. […] After 1 hour the media was removed, the cells were fixed with 3.8% formaldehyde for 20 min, washed with PBS, and permeabilized for 10 min with 100% methanol. […] All antibodies were diluted in LI-COR Block containing 0.05% Tween. The plates were washed with PBS-0.05% Tween20, 100 μL PBS was added to each well, and the plates were read on a LI-COR Aerius fluorescent plate reader. The phospho-RET signal was normalized to the GAPDH signal. […] The IC50 value is the point where the curve crosses 50 POC.

[2] = molecular target: N-terminal GST tagged recombinant human RET cytoplasmic domain (aa 658-end), wild type RET kinase (Homo sapiens (Human), UniProt P07949); assay: RET Enzyme Assay (HTRF KinEASE-TK), wild type RET; type: biochemical
Sequence of N-terminal GST tagged recombinant human RET cytoplasmic domain (aa 658-end), wild type RET kinase (P07949 658-1114): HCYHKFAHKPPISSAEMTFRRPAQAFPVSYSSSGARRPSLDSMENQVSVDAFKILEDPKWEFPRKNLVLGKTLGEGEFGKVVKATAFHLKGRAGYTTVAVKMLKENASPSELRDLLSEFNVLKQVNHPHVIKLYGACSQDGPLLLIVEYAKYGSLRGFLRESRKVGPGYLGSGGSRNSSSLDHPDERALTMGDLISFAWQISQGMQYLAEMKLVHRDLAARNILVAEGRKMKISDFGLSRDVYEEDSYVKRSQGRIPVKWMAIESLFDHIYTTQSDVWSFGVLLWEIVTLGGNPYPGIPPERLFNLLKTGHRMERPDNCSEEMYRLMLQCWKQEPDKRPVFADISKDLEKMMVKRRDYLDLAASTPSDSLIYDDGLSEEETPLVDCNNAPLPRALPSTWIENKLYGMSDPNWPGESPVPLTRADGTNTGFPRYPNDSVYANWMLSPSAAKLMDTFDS

[3] = HEK-293 cells expressing Kif5b-RET, read-out: KIF5B-RET pTYR1062 Cell IC50
[4] = HEK-293 cells expressing Kif5b-RET, phospho-RET(Tyr1062), read-out: KIF5B-RET pTYR1062 Cell IC50

Sequence of Kif5b-RET fusion protein in HEK-293 cells (P07949 29-1114 limits assumed): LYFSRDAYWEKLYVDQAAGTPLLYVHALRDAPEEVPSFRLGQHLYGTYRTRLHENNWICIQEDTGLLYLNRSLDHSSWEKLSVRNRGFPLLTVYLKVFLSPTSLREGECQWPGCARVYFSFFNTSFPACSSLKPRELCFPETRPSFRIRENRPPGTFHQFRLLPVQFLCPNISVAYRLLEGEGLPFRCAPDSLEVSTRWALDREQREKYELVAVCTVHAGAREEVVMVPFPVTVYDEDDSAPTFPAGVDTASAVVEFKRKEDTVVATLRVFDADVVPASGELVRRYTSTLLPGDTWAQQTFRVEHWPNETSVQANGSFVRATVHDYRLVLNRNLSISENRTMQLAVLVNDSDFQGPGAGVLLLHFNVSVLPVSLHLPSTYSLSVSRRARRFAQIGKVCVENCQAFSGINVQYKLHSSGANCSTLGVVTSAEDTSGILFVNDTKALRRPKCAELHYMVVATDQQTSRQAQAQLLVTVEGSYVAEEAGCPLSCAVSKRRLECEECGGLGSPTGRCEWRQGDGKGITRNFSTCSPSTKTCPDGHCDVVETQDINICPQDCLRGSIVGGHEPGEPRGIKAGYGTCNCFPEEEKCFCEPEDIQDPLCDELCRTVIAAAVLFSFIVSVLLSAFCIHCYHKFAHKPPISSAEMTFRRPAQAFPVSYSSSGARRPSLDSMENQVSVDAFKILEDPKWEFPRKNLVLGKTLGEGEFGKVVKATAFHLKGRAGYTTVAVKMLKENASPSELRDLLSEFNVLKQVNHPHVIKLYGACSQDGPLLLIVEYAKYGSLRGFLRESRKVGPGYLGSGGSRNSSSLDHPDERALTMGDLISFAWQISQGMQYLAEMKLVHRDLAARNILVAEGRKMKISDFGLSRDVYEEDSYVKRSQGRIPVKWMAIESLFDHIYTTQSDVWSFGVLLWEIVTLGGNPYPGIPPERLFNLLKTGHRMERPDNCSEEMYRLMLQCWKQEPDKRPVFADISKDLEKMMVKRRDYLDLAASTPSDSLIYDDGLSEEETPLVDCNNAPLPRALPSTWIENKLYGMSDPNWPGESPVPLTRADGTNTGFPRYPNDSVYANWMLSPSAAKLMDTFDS

SMILES | IC50 [1, 3] [nM] | IC50 ([2]; wild type RET, 1 mM ATP) [nM] | IC50 [1, 4] [nM] | IC50 [2] [nM] | IC50 [1] [nM]
Cn1cc(-c2cc(-c3ccc(N4CCN(C(=O)CCS(C)(=O)=O)CC4)nc3)c3c(C#N)cnn3c2)cn1 [Example 3, 6-(1-methyl-1H-pyrazol-4-yl)-4-(6-(4-(3-(methylsulfonyl)propanoyl)piperazin-1-yl)pyridin-3-yl)pyrazolo[1,5-a]pyridine-3-carbonitrile] |  | 11.9 | 119 |  | 
CC[C@@H](CO)NC(=O)N1CCN(c2ccc(-c3cc(-c4cnn(C)c4)cn4ncc(C#N)c34)cn2)CC1 [Example 122, (S)-4-(5-(3-cyano-6-(1-methyl-1H-pyrazol-4-yl)pyrazolo[1,5-a]pyridin-4-yl)pyridin-2-yl)-N-(1-hydroxybutan-2-yl)piperazine-1-carboxamide] |  | 11.3 | 267 |  | 
CN(C)C(=O)C1CCN(c2ccc(-c3cc(-c4cnn(C)c4)cn4ncc(C#N)c34)cn2)CC1 [Example 562, 1-(5-(3-cyano-6-(1-methyl-1H-pyrazol-4-yl)pyrazolo[1,5-a]pyridine-4-yl)pyridine-2-yl)-N,N-dimethylpiperidine-4-carboxamide 2,2,2-trifluoroacetate] | 58.6 |  |  | 56 | 
Cc1cnn2cc(-c3cnn(C)c3)cc(-c3ccc(N4CCN(Cc5ccccn5)CC4)nc3)c12 [Example 654, 3-methyl-6-(1-methyl-1H-pyrazol-4-yl)-4-(6-(4-(pyridine-2-ylmethyl)piperazin-1-yl)pyridin-3-yl)pyrazolo[1,5-a]pyridine] | 164 | 70.6 |  |  | 
COc1ccc(CN2CCN(c3ccc(-c4cc(-c5cnn(CCOC(C)C)c5)cn5ncc(C#N)c45)cn3)CC2)cn1 [Example 704, 6-(1-(2-isopropoxyethyl)-1H-pyrazol-4-yl)-4-(6-(4-((6-methoxypyridin-3-yl)methyl)piperazin-1-yl)pyridin-3-yl)pyrazolo[1,5-a]pyridine-3-carbonitrile] |  | 30.1 |  |  | 8.3
C[C@H](O)C(=O)NC1CCN(c2ccc(-c3cc(-c4cnn(C)c4)cn4ncc(C#N)c34)cn2)CC1 [Example 180, (S)-N-(1-(5-(3-cyano-6-(1-methyl-1H-pyrazol-4-yl)pyrazolo[1,5-a]pyridin-4-yl)pyridin-2-yl)piperidin-4-yl)-2-hydroxypropanamide] |  | 13.6 | 135 |  | 
CN(C)CCCC(=O)N1CCN(c2ccc(-c3cc(-c4cnn(C)c4)cn4ncc(C#N)c34)cn2)CC1 [Example 52, 4-(6-(4-(4-(dimethylamino)butanoyl)piperazin-1-yl)pyridin-3-yl)-6-(1-methyl-1H-pyrazol-4-yl)pyrazolo[1,5-a]pyridine-3-carbonitrile bis(2,2,2-trifluoroacetate)] |  |  | 340 | 17.7 | 
COc1cc(C)c(CN2CCN(c3ccc(-c4cc(-c5cnn(C)c5)cn5ncc(C#N)c45)cn3)CC2)cn1 [Example 672, 4-(6-(4-((6-methoxy-4-methylpyridin-3-yl)methyl)piperazin-1-yl)pyridin-3-yl)-6-(1-methyl-1H-pyrazol-4-yl)pyrazolo[1,5-a]pyridine-3-carbonitrile] | 17.3 | 19.3 |  |  | 
COc1ccc(CN2CCN(c3ccc(-c4cc(-c5cnn(C)c5)cn5ncc(Cl)c45)cn3)CC2)cn1 [Example 742, 3-chloro-4-(6-(4-((6-methoxypyridin-3-yl)methyl)piperazin-1-yl)pyridin-3-yl)-6-(1-methyl-1H-pyrazol-4-yl)pyrazolo[1,5-a]pyridine] |  | 37.3 |  |  | 38.5
CC(C)S(=O)(=O)CCN1CCN(c2ccc(-c3cc(-c4cnn(C)c4)cn4ncc(C#N)c34)cn2)CC1 [Example 403, 4-(6-(4-(2-(isopropylsulfonyl)ethyl)piperazin-1-yl)pyridin-3-yl)-6-(1-methyl-1H-pyrazol-4-yl)pyrazolo[1,5-a]pyridine-3-carbonitrile] | 4.6 | 10.8 |  |  | 
Cn1cc(-c2cc(-c3ccc(N4CCN(C(=O)OC(C)(C)C)CC4)nc3)c3c(C#N)cnn3c2)cn1 [Example 1, tert-butyl 4-(5-(3-cyano-6-(1-methyl-1H-pyrazol-4-yl)pyrazolo[1,5-a]pyridin-4-yl)pyridin-2-yl)piperazine-1-carboxylate] |  | 35.8 | 47.5 |  | 
COC(CN1CCN(c2ccc(-c3cc(-c4cnn(C)c4)cn4ncc(C#N)c34)cn2)CC1)C(C)(C)C (stereo not shown) [Example 417, 4-(6-(4-(2-methoxy-3,3-dimethylbutyl)piperazin-1-yl)pyridin-3-yl)-6-(1-methyl-1H-pyrazol-4-yl)pyrazolo[1,5-a]pyridine-3-carbonitrile] | 48.5 | 37.1 |  |  | 
CNC(=O)N1CCN(c2ccc(-c3cc(-c4cnn(C)c4)cn4ncc(C#N)c34)cn2)CC1 [Example 387, 4-(5-(3-cyano-6-(1-methyl-1H-pyrazol-4-yl)pyrazolo[1,5-a]pyridin-4-yl)pyridin-2-yl)-N-methylpiperazine-1-carboxamide] |  | 25.1 |  |  | 53.2
Cn1cc(-c2cc(-c3ccc(N4CCN(C(=O)OC(C)(C)C)CC4)nc3)c3c(Cl)cnn3c2)cn1 [Example 325, tert-butyl 4-(5-(3-chloro-6-(1-methyl-1H-pyrazol-4-yl)pyrazolo[1,5-a]pyridin-4-yl)pyridin-2-yl)piperazine-1-carboxylate] |  | 372 | 742 |  | 
CC(O)CN(C)C(=O)C1CCN(c2ccc(-c3cc(-c4cnn(C)c4)cn4ncc(C#N)c34)cn2)CC1 (stereo not shown) [Example 245, 1-(5-(3-cyano-6-(1-methyl-1H-pyrazol-4-yl)pyrazolo[1,5-a]pyridin-4-yl)pyridin-2-yl)-N-(2-hydroxypropyl)-N-methylpiperidine-4-carboxamide] |  | 30.2 | 191 |  | 
CC(C)C(O)CN1CCN(c2ccc(-c3cc(-c4cnn(C)c4)cn4ncc(Cl)c34)cn2)CC1 (stereo not shown) [Example 648, 1-(4-(5-(3-chloro-6-(1-methyl-1H-pyrazol-4-yl)pyrazolo[1,5-a]pyridin-4-yl)pyridine-2-yl)piperazin-1-yl)-3-methylbutan-2-ol] |  | 34.1 |  |  | 183
Cc1cc(-c2cc(-c3cnn(C)c3)cn3ncc(C#N)c23)cnc1N1CCN(C(=O)CC(C)(C)O)CC1 [Example 277, 4-(6-(4-(3-hydroxy-3-methylbutanoyl)piperazin-1-yl)-5-methylpyridin-3-yl)-6-(1-methyl-1H-pyrazol-4-yl)pyrazolo[1,5-a]pyridine-3-carbonitrile] |  | 300 |  |  | 

Now from value to compound, other results behind:

IC50 [1, 3] [nM] | IC50 ([2]; wild type RET, 1 mM ATP) [nM] | IC50 [1, 4] [nM] | SMILES | IC50 [2] [nM] | IC50 [1] [nM]
8 | 16.5 |  | COc1ccc(CN2CCN(c3ccc(-c4cc(-c5cnn(C[C@H](C)O)c5)cn5ncc(C#N)c45)cn3)CC2)cn1 [Example 701, (S)-6-(1-(2-hydroxypropyl)-1H-pyrazol-4-yl)-4-(6-(4-((6-methoxypyridin-3-yl)methyl)piperazin-1-yl)pyridin-3-yl)pyrazolo[5-a]pyridine-3-carbonitrile] |  | 
5.6 | 15.3 |  | COc1ccc(CN2CCN(c3ccc(-c4cc(-c5cnn(CC(C)(C)O)c5)cn5ncc(C#N)c45)cn3)CC2)cn1 [Example 702, 6-(1-(2-hydroxy-2-methylpropyl)-1H-pyrazol-4-yl)-4-(6-(4-((6-methoxypyridin-3-yl)methyl)piperazin-1-yl)pyridin-3-yl)pyrazolo[1,5-a]pyridine-3-carbonitrile] |  | 
16.1 |  |  | COc1ccc(CN2CCN(c3ccc(-c4cc(-c5cnn(C(F)F)c5)cn5ncc(C#N)c45)cn3)CC2)cn1 [Example 696, 6-(1-(difluoromethyl)-1H-pyrazol-4-yl)-4-(6-(4-((6-methoxypyridin-3-yl)methyl)piperazin-1-yl)pyridin-3-yl)pyrazolo[1,5-a]pyridine-3-carbonitrile] |  | 
7.7 | 10.8 |  | COc1cccc(CN2CCN(c3ccc(-c4cc(-c5cnn(C)c5)cn5ncc(C#N)c45)cn3)CC2)n1 [Example 399, 4-(6-(4-((6-methoxypyridin-2-yl)methyl)piperazin-1-yl)pyridin-3-yl)-6-(1-methyl-1H-pyrazol-4-yl)pyrazolo[1,5-a]pyridine-3-carbonitrile] |  | 
7 | 19.4 |  | COc1ccc(CN2CCN(c3ccc(-c4cc(-c5cnn(CC(C)CO)c5)cn5ncc(C#N)c45)cn3)CC2)cn1 (stereo in doubt) [Example 708, (S)-6-(1-(3-hydroxy-2-methylpropyl)-1H-pyrazol-4-yl)-4-(6-(4-((6-methoxypyridin-3-yl)methyl)piperazin-1-yl)pyridin-3-yl)pyrazolo[1,5-a]pyridine-3-carbonitrile] |  | 
24.1 | 13.6 |  | Cn1cc(-c2cc(-c3ccc(N4CCN(Cc5ccc(OC(F)F)nc5)CC4)nc3)c3c(C#N)cnn3c2)cn1 [Example 675, 4-(6-(4-((6-(difluoromethoxy)pyridin-3-yl)methyl)piperazin-1-yl)pyridin-3-yl)-6-(1-methyl-1H-pyrazol-4-yl)pyrazolo[1,5-a]pyridine-3-carbonitrile] |  | 
12.4 | 6.7 |  | COc1ccc(CN2CCN(c3ccc(-c4cc(-c5cn[nH]c5)cn5ncc(C#N)c45)cn3)CC2)cn1 [Example 698, 4-(6-(4-((6-methoxypyridin-3-yl)methyl)piperazin-1-yl)pyridin-3-yl)-6-(1H-pyrazol-4-yl)pyrazolo[1,5-a]pyridine-3-carbonitrile] |  | 
